Columns and labels:
[1] = target: T1, LBAT (Homo sapiens, UniProt Q14973); test: In vitro uptake by CHO cells transfected with LBAT, evaluated by LC-MS/MS; type: cell-based; settings: 0.06 to 1000 μM, 10 min
T1 construct: expressed in transfected cells; host or cells: CHO cells
Protocol: (§1) Active transport of (4) by the bile acid transport system was evaluated in vitro by incubation of (4) or glycocholate (control substrate) with untransfected CHO K1 cells or CHO cells transfected with either IBAT or LBAT. Cells (10^5 cells/mL) were incubated in 96 well plates with varying concentrations (0.06 to 1000 μM) of (4) or glycocholate for 10 min. Cells were then washed with Hank's Balanced Salt Solution (HBSS) and lysed and extracted by addition of 100 μL of water followed by sonication. Concentrations of (4) or glycocholate in cell extracts were determined by direct injection onto an API 2000 LC/MS/MS equipped with an Agilent 1100 binary pump and autosampler. Separation was achieved using a Keystone BDS Hypersil 2×50 mm column heated to 45° C. during the analysis. The mobile phases were: 0.1% formic acid in water (A) and 0.1% formic acid in acetonitrile (B). The gradient condition was: 5% B for 1 min, increasing to 90% B in 0.2 min, maintained for 2.8 min and returning to 5% B for 2 min. A TurboIonSpray source was used on the API 2000. The analysis was performed in the positive ion mode and MRM transitions of 466/412 and 562/154 were used in the analysis of glycocholate and (4), respectively. Ten microliters of the cell extracts were injected. Peaks were integrated using Analyst quantitation software. […]

[2] = target: T2, IBAT (Homo sapiens, UniProt Q12908); test: Inhibition of radiolabeled taurocholate uptake in IBAT-transfected CHO cells; type: cell-based; design: expressed in transfected cells; host or cells: CHO cells; settings: radiolabeled competition assay in transporter-expressing CHO cells
T2 sequence (Q12908 whole entry): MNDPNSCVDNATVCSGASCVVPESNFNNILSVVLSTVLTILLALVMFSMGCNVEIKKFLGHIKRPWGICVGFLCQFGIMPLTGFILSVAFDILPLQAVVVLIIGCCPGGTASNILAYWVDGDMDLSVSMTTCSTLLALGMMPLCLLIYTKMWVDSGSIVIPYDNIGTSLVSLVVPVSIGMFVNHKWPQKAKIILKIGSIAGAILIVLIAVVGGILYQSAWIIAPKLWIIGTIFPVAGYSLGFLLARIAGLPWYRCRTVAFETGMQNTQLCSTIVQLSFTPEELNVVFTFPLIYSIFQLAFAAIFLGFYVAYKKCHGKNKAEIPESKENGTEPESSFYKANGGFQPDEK
Protocol: (§2) CHO cells transfected with either the IBAT or LBAT transporter were seeded into 96-well microtiter plates at 100,000 cells/well in 100 μL DMEM containing 10% serum, glutamine and Penstrep. After overnight incubation the media was removed and test compound (25 μL) added at 2× the final desired concentration. Tritiated taurocholate (50,000 CPM/well) was diluted with cold substrate to a final concentration of 5 μM and 25 μL/well of this mixture was added to the plate. After incubating for 1 h at room temperature the solution was removed and the plate washed 4× with PBS at 4° C. 200 μL/well of scintillant is added and the plate then read in a Wallac microbeta counter. The inhibition data is processed by standard methods to calculate an inhibition constant Ki for the test compound.

[3] = target: Cholylglycine Hydrolase (Clostridium perfringens, UniProt P54965); settings: compared with plasma, liver or intestine
Chain of Cholylglycine Hydrolase (P54965 whole entry, looked up): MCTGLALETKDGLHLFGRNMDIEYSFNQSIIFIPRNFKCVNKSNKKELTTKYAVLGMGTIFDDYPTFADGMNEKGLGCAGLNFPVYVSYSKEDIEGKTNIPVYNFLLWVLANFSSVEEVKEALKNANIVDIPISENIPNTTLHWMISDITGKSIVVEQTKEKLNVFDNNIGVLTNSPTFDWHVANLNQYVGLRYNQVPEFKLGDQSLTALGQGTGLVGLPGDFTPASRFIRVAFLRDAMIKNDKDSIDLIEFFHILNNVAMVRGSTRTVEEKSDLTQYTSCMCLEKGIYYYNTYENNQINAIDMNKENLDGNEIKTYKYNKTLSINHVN

[4] = target: T2, IBAT; test: In vitro uptake by CHO cells transfected with IBAT, evaluated by LC-MS/MS; type: cell-based; design: expressed in transfected cells; host or cells: CHO cells; settings: 0.06 to 1000 μM, 10 min
Protocol: as §1

[5] = target: T1, LBAT; test: Inhibition of radiolabeled taurocholate uptake in LBAT-transfected CHO cells; type: cell-based; settings: radiolabeled competition assay in transporter-expressing CHO cells
Protocol: as §2

[6] = in vivo; settings: male, Sprague-Dawley, rat, po, 85.25 mg/kg
Protocol: (§3) The pharmacokinetics of the prodrug (4) were examined in rats. Three groups of four male Sprague-Dawley rats (approx 200 g) with jugular cannulae each received one of the following treatments: A) a single bolus intravenous injection of gabapentin (25 mg/kg, as a solution in water); B) a single oral dose of gabapentin (25 mg/kg, as a solution in water) administered by oral gavage; C) a single oral dose of (4) (85.25 mg/kg, as a solution in water) administered by oral gavage. Animals were fasted overnight prior to dosing and until 4 hours post-dosing. Serial blood samples were obtained over 24 hours following dosing and blood was processed for plasma by centrifugation. Plasma samples were stored at −80° C. until analyzed. Concentrations of (4) or gabapentin in plasma samples were determined by LC/MS/MS as described in Example 35. Plasma (50 μL) was precipitated by addition of […] of methanol and supernatent was injected directly onto the LC/MS/MS system. The method was linear for gabapentin over the concentration range 0.001 to 20 ng/mL and for (4) over the concentration range 0.01 to 10 ng/mL.
as §3, with “prodrug Cholyl-Phe-Gabapentin (7g)” for “prodrug (4)”, “of (7g) (103.5” for “of (4) (85.25”, “of (7g)” for “of (4)”, “or (2)” for “or gabapentin”, “described above.” for “described in Example 35.”, “system.” for “system. The method was linear for gabapentin over the concentration range 0.001 to 20 ng/mL and for (4) over the concentration range 0.01 to 10 ng/mL.”

T1 sequence (Q14973 whole entry): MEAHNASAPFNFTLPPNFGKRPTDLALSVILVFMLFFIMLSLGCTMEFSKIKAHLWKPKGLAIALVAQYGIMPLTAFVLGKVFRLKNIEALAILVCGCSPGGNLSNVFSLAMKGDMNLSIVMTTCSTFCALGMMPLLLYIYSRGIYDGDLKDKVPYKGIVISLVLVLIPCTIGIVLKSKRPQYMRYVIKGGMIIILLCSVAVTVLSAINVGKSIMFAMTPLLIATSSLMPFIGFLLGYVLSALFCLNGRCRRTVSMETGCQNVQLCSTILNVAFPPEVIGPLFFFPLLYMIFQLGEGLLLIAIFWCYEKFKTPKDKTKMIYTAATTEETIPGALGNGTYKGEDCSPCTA

For `CC(CCC(=O)NCC1(CC(=O)O)CCCCC1)C1CCC2C3C(O)CC4CC(O)CCC4(C)C3CC(O)C12C` (centres unmarked) [Compound (4)], which “Active uptake by bile acid transport system” value [1] is on record?
Its value is “Active uptake”.

And the IC50 [2]?
Its IC50 is 36 µM.

What about the “release of gabapentin catalyzed by cholylglycine hydrolase (in words)” value [3] of the same molecule?
The value was “Substantially faster release”.

And the “Active uptake by bile acid transport system” value [4]?
The value was “Active uptake”.

What about the IC50 [5] of the same molecule?
Its IC50 is 8 µM.

What about the “concentrations of intact (4) in plasma sustained out to” value [6] of the same molecule?
Its value is 24 h.

What about the half-life [6] of the same molecule?
The half-life was over 12 h.

And the “time of maximum concentration of intact (4) in plasma” value [6]?
The value was about 8 h.
